Consider four compounds from patent US9402827B2, “Treatment of gout” (ARDEA BIOSCIENCES, INC., priority 2010, dated 2016).

The subject of data set [1] is MSU-induced knee joint swelling. The data set is described as follows: In vivo MSU-induced inflammation, rat knee joint study (Example 3C). Particulars: for Average increase in knee diameter: 4 h after MSU. More on the design: species or system Sprague-Dawley rats. How it is done:
[table] Groups 1 and 2 were orally dosed with Vehicle (sterile water) once daily for seven days from Day 1. […] Groups 6 and 7 were orally dosed with Lesinurad once daily for seven days from Day 1; Group 7 also received colchicine administered subcutaneously on Day 7. […] The injection was performed from the anterior aspect of the knee joint, which was slightly extended and flexed. […] Four hours after MSU administration, the rats were anesthetized, the diameter of right knee joints were measured with calipers; surface temperature for right knees were measured. Synovial lavage fluid from the knee was collected by injecting phosphate buffered saline with 1% BSA (0.2 mL) into the joint cavity, the fluid then collected, centrifuged and the supernatants stored at −80° C.

The subject of data set [2] is monosodium urate (MSU) crystal injection-induced inflammation. The data set is described as follows: In vivo MSU-induced inflammation, rat air pouch study (Example 3B). More on the design: species or system Sprague-Dawley rats. Particulars: for Extravasation (optical absorbance at 620 nm), Av / Extravasation (optical absorbance at 620 nm), individual rats 1-10 / Exudate volume, Av / Exudate volume, individual rats 1-10 / Total white blood cell count, Av / Total white blood cell count, individual rats 1-10: 4 h after MSU. How it is done: (Air Pouch studies) were unpacked, placed in cages, a health inspection performed and a number assigned. […] Under anesthesia, 30 mL sterile air was injected subcutaneously on day 0 and day 3. Vehicle (water) or Lesinurad were administered orally. On the day of the experiment, rats were dosed with Vehicle, Lesinurad p.o., and/or colchicine s.c. (Sigma, Cat.#C9754, Lot.#188K1131). […] The pouch was gently massaged and the exudate was immediately removed from the air pouch. The exudate volume was measured and recorded for each animal. […] The supernatants were stored at −20° C. for cytokine analysis. […] Plasma extravasation was measured by optical absorbance at 620 nm for each exudate sample.

The conditions of data set [3]: in certain instances; cited from earlier work.
The next data set has as its system gout flares. Particulars: allopurinol dosed with colchicine (0.5 mg QD); separate study; cited from earlier work.
A further data set concerns IL-1β. The data set is described as follows: Effect of rilonacept on IL-1β production (Example 1, FIG. 2B). Type of data set: cell-based. The text has this: (§1) FIG. 2 illustrates the effect of rilonacept […] on TNF-α (FIG. 2A) and IL-1β production (FIG. 2B).
(§2) Activation of the inflammasome results in the release of preformed IL-1, which goes on to activate other targets as well as increase the production of IL-1 itself.

In a further data set the test system is TNF-α. Put plainly: Effect of rilonacept on TNF-α production (Example 1, FIG. 2A). Type of data set: cell-based. Particulars: 6 hour time point.
Excerpt: as §1, §2

The conditions of data set [4]: in certain instances; cited from earlier work. This is another data set of the same source.

Values joined by “and” are separate entries in the source; they are usually repeats but may differ in a detail not shown here. Identical values can stand only once.

As for `COc1cc2c(c(OC)c1OC)-c1ccc(OC)c(=O)cc1[C@@H](NC(C)=O)CC2` [Colchicine, reference compound], the “Average increase in knee diameter” value in data set [1] (Colchicine 0.1 mg/kg s.c., p < 0.01 vs Vehicle) is 0.71 mm; in data set [1] (Colchicine 0.3 mg/kg s.c., p < 0.001 vs Vehicle) it was 0.53 mm; in data set [1] (Colchicine 1 mg/kg s.c., p < 0.001 vs Vehicle) it was 0.41 mm. In data set [1] (Colchicine 0.1, 0.3 and 1 mg/kg), the “MSU-induced increase in knee diameter, in words” value is reported as “dose-dependently decreased the MSU-induced increase in knee diameter”. Further, the figures for the “Extravasation (optical absorbance at 620 nm), Av” value in data set [2] (Colchicine 0.01 mg/kg s.c.), in data set [2] (Colchicine 0.1 mg/kg s.c.) and in data set [2] (Colchicine 1 mg/kg s.c.) were 1.78, 1.29 and 0.89, respectively. The “Extravasation (optical absorbance at 620 nm), individual rats 1-10” value in data set [2] (Colchicine 0.01 mg/kg s.c.) is 1.34 and 1.53 and 1.46 and 1.67 and 1.63 and 1.74 and 2.62 and 2.39 and 1.99 and 1.42; in data set [2] (Colchicine 0.1 mg/kg s.c.), 1.25 and 1.41 and 1.31 and 1.74 and 0.68 and 1.75 and 1.72 and 0.98 and 0.83 and 1.22; in data set [2] (Colchicine 1 mg/kg s.c.), 0.75 and 0.36 and 1.17 and 1.19 and 1.24 (2×) and 1.12 and 0.52 and 0.73 and 0.59. Moreover, the entries for the “Exudate volume, Av” value in data set [2] (Colchicine 0.01 mg/kg s.c.), in data set [2] (Colchicine 0.1 mg/kg s.c.) and in data set [2] (Colchicine 1 mg/kg s.c.) were 9.8 mL, 9.86 mL and 6.13 mL, respectively. Also, the “Exudate volume, individual rats 1-10” value in data set [2] (Colchicine 0.01 mg/kg s.c.) was 12 mL (2×) and 8 mL (3×) and 10 mL and 9 mL (2×) and 11 mL (2×); in data set [2] (Colchicine 0.1 mg/kg s.c.), 9 mL (2×) and 8 mL (2×) and 10 mL and 7.8 mL and 9.8 mL and 11 mL (2×) and 15 mL; in data set [2] (Colchicine 1 mg/kg s.c.) it was 8 mL (2×) and 4.4 mL and 7 mL and 5.9 mL and 8.6 mL and 5.6 mL and 4.6 mL and 4 mL and 5.2 mL. Also, the “Total white blood cell count, Av” value is on record as 1.65 ×10^8 in data set [2] (Colchicine 0.01 mg/kg s.c.), 0.78 ×10^8 in data set [2] (Colchicine 0.1 mg/kg s.c.) and 0.56 ×10^8 in data set [2] (Colchicine 1 mg/kg s.c.). Moreover, the “Total white blood cell count, individual rats 1-10” value in data set [2] (Colchicine 0.01 mg/kg s.c.) was 0.87 ×10^8 and 2.72 ×10^8 and 3.40 ×10^8 and 0.63 ×10^8 and 2.27 ×10^8 and 0.90 ×10^8 and 2.22 ×10^8 and 2.42 ×10^8 and 0.69 ×10^8 and 0.34 ×10^8; in data set [2] (Colchicine 0.1 mg/kg s.c.), 0.41 ×10^8 and 0.14 ×10^8 and 2.60 ×10^8 and 1.21 ×10^8 and 0.32 ×10^8 and 1.27 ×10^8 and 1.51 ×10^8 and 0.03 ×10^8 and 0.06 ×10^8 and 0.27 ×10^8; in data set [2] (Colchicine 1 mg/kg s.c.) it was 0.36 ×10^8 and 0.01 ×10^8 and 3.43 ×10^8 and 0.32 ×10^8 and 0.52 ×10^8 and 0.26 ×10^8 (2×) and 0.35 ×10^8 and 0.03 ×10^8 and 0.09 ×10^8. The “Number of white blood cells, in words” value in data set [2] (Colchicine 0.01, 0.1, 1 mg/kg) is listed as “dose-dependently lowered the number of white blood cells”. Further, the “Extravasation, in words” value in data set [2] (Colchicine 0.01, 0.1 and 1 mg/kg) was “dose-dependent decrease in extravasation”. Besides, the “Exudate volume, in words” value is “significantly reduced exudate volume” in data set [2] (colchicine 1 mg/kg); “did not significantly reduce exudate volume” in data set [2] (colchicine 0.01 and 0.1 mg/kg).

Regarding `Oc1ncnc2[nH]ncc12` [allopurinol], the “incidence of side effects, of all individuals treated” value in data set [3] was 20%. Further, the patients experiencing flares with gout flares is 28%.

For rilonacept, the IL-1 production result with IL-1β was “does not reduce IL-1 production”. Besides, the TNF-α production result in the data set on TNF-α is on record as “only inhibits the production of TNF-α”.

`CCCN(CCC)S(=O)(=O)c1ccc(C(=O)O)cc1` [probenecid]: the “individuals who fail to achieve reduction of serum uric acid levels <6 mg/dL” value in data set [4] is 25-50%.
